In PubChem BioAssay (NCI):
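Test compounds were applied to cells in 96-well plates for 48 hours at 5 doses. GI50 marks 50% less growth. TGI denotes the concentration required for complete inhibition of growth.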

Experiments:
Assay in all cases: inhibition of tumour cell growth, NCI panel, 48 h; in the data active = GI50 below about 0.43 µM; inactive = the rest
HS 578T breast = system: HS 578T breast
SR leukemia = system: SR leukemia
UACC-257 melanoma = system: UACC-257 melanoma
786-0 renal = system: 786-0 renal
NCI-H522 lung = system: NCI-H522 lung
UO-31 renal = system: UO-31 renal
HT29 colon = system: HT29 colon
SF-295 CNS = system: SF-295 CNS
KM12 colon = system: KM12 colon
ACHN renal = system: ACHN renal
MDA-MB-435 = system: MDA-MB-435
UACC-62 melanoma = system: UACC-62 melanoma
HCT-116 colon = system: HCT-116 colon
SK-MEL-28 melanoma = system: SK-MEL-28 melanoma
NCI/ADR-RES ovarian = system: NCI/ADR-RES ovarian
OVCAR-5 ovarian = system: OVCAR-5 ovarian
TK-10 renal = system: TK-10 renal
MCF7 breast = system: MCF7 breast
COLO 205 colon = system: COLO 205 colon
HOP-62 NSCLC = system: HOP-62 NSCLC
SK-OV-3 ovarian = system: SK-OV-3 ovarian
BT-549 breast = system: BT-549 breast
K-562 leukemia = system: K-562 leukemia
RXF 393 renal = system: RXF 393 renal
M14 melanoma = system: M14 melanoma
SK-MEL-5 melanoma = system: SK-MEL-5 melanoma
U251 CNS = system: U251 CNS
EKVX NSCLC = system: EKVX NSCLC
SN12C renal = system: SN12C renal
NCI-H226 lung = system: NCI-H226 lung
A498 renal = system: A498 renal
OVCAR-8 ovarian = system: OVCAR-8 ovarian
MOLT-4 leukemia = system: MOLT-4 leukemia
OVCAR-4 ovarian = system: OVCAR-4 ovarian
NCI-H460 lung = system: NCI-H460 lung
CCRF-CEM leukemia = system: CCRF-CEM leukemia
MALME-3M melanoma = system: MALME-3M melanoma
HCC-2998 colon = system: HCC-2998 colon
PC-3 prostate = system: PC-3 prostate
A549 NSCLC = system: A549 NSCLC
OVCAR-3 ovarian = system: OVCAR-3 ovarian
LOX IMVI melanoma = system: LOX IMVI melanoma
HL-60(TB) leukemia = system: HL-60(TB) leukemia
NCI-H23 lung = system: NCI-H23 lung
SF-539 CNS = system: SF-539 CNS
IGROV1 ovarian = system: IGROV1 ovarian
SW-620 colon = system: SW-620 colon
T-47D breast = system: T-47D breast
SF-268 CNS = system: SF-268 CNS
MDA-MB-231 breast = system: MDA-MB-231 breast
SNB-19 CNS = system: SNB-19 CNS
DU-145 prostate = system: DU-145 prostate
HCT-15 colon = system: HCT-15 colon
CAKI-1 renal = system: CAKI-1 renal

O=C(CN/C=C\C(=O)c1cc(Cl)ccc1Cl)c1ccccc1
58.8 µM: TGI (NCI-H226 lung)
67.5 µM: TGI (RXF 393 renal)
55.3 µM: TGI (KM12 colon)
47.2 µM: TGI (HCC-2998 colon)
57.1 µM: TGI (SN12C renal)
85.7 µM: TGI (OVCAR-3 ovarian)
61.3 µM: TGI (HS 578T breast)
44.2 µM: TGI (NCI-H23 lung)
inactive: GI50 (HS 578T breast) 25.7 µM | GI50 (SR leukemia) > 100 µM | GI50 (UACC-257 melanoma) 24.7 µM | GI50 (786-0 renal) 36.1 µM | GI50 (NCI-H522 lung) 17.4 µM | GI50 (UO-31 renal) 34.4 µM | GI50 (HT29 colon) 31.6 µM | GI50 (SF-295 CNS) 20.4 µM | GI50 (KM12 colon) 23.8 µM | GI50 (ACHN renal) > 100 µM | GI50 (MDA-MB-435) 19.2 µM | GI50 (UACC-62 melanoma) 20.7 µM | GI50 (HCT-116 colon) 21.2 µM | GI50 (SK-MEL-28 melanoma) 41.9 µM | GI50 (NCI/ADR-RES ovarian) 19.7 µM | GI50 (OVCAR-5 ovarian) 30.6 µM | GI50 (TK-10 renal) 26 µM | GI50 (MCF7 breast) 22.7 µM | GI50 (COLO 205 colon) 34.9 µM | GI50 (HOP-62 NSCLC) 34.5 µM | GI50 (SK-OV-3 ovarian) 47.1 µM | GI50 (BT-549 breast) 27.4 µM | GI50 (K-562 leukemia) 61.2 µM | GI50 (RXF 393 renal) 22.9 µM | GI50 (M14 melanoma) 24 µM | GI50 (SK-MEL-5 melanoma) 18.1 µM | GI50 (U251 CNS) 33.1 µM | GI50 (EKVX NSCLC) 31.1 µM | GI50 (SN12C renal) 25.9 µM | GI50 (NCI-H226 lung) 25.5 µM | GI50 (A498 renal) 23.2 µM | GI50 (OVCAR-8 ovarian) 26.4 µM | GI50 (MOLT-4 leukemia) > 100 µM | GI50 (OVCAR-4 ovarian) 49.8 µM | GI50 (NCI-H460 lung) 32.3 µM | GI50 (CCRF-CEM leukemia) 18.5 µM | GI50 (MALME-3M melanoma) 25.1 µM | GI50 (HCC-2998 colon) 19.3 µM | GI50 (PC-3 prostate) 26 µM | GI50 (A549 NSCLC) 67 µM | GI50 (OVCAR-3 ovarian) 26 µM | GI50 (LOX IMVI melanoma) 19.8 µM | GI50 (HL-60(TB) leukemia) 73.4 µM | GI50 (NCI-H23 lung) 19.1 µM | GI50 (SF-539 CNS) 20.4 µM | GI50 (IGROV1 ovarian) 29.1 µM | GI50 (SW-620 colon) 32 µM | GI50 (T-47D breast) 33.4 µM | GI50 (SF-268 CNS) 24.8 µM | GI50 (MDA-MB-231 breast) 21.6 µM | GI50 (SNB-19 CNS) 47.4 µM | GI50 (DU-145 prostate) 33.4 µM | GI50 (HCT-15 colon) 18.3 µM | GI50 (CAKI-1 renal) 26.6 µM
59.6 µM: TGI (M14 melanoma)
83.4 µM: TGI (SF-268 CNS)
73.7 µM: TGI (TK-10 renal)
67 µM: TGI (PC-3 prostate)
33.7 µM: TGI (SK-MEL-5 melanoma)
51.9 µM: TGI (MCF7 breast)
37.6 µM: TGI (HCT-15 colon)
38.8 µM: TGI (SF-539 CNS)
71.4 µM: TGI (OVCAR-8 ovarian)
66.2 µM: TGI (CAKI-1 renal)
43.1 µM: TGI (HCT-116 colon)
99.6 µM: TGI (U251 CNS)
35.1 µM: TGI (LOX IMVI melanoma)
99.2 µM: TGI (EKVX NSCLC)
74.7 µM: TGI (BT-549 breast)
36.7 µM: TGI (CCRF-CEM leukemia)
45 µM: TGI (MDA-MB-435)
52 µM: TGI (UACC-62 melanoma)
> 100 µM: TGI (SR leukemia) | TGI (786-0 renal) | TGI (UO-31 renal) | TGI (HT29 colon) | TGI (ACHN renal) | TGI (SK-MEL-28 melanoma) | TGI (OVCAR-5 ovarian) | TGI (COLO 205 colon) | TGI (HOP-62 NSCLC) | TGI (SK-OV-3 ovarian) | TGI (K-562 leukemia) | TGI (MOLT-4 leukemia) | TGI (OVCAR-4 ovarian) | TGI (NCI-H460 lung) | TGI (A549 NSCLC) | TGI (HL-60(TB) leukemia) | TGI (IGROV1 ovarian) | TGI (SW-620 colon) | TGI (T-47D breast) | TGI (SNB-19 CNS) | TGI (DU-145 prostate)
90.5 µM: TGI (A498 renal)
50.7 µM: TGI (SF-295 CNS)
41.2 µM: TGI (NCI/ADR-RES ovarian)
61.9 µM: TGI (UACC-257 melanoma)
47.5 µM: TGI (MDA-MB-231 breast)
34.8 µM: TGI (NCI-H522 lung)
78.3 µM: TGI (MALME-3M melanoma)
